From patent US20250161216A1, “CATIONIC LIPID ANALOGUES, COMPOSITIONS AND USES THEREOF” (GUANGZHOU LIDE BIOMEDICINE TECHNOLOGY CO., LTD., priority 2022, published 2025)

Legend:
C57BL/6 mice [1] = assay: In vivo expression level of Luciferase-mRNA delivered by intravenous injection (bioluminescence imaging); settings: mRNA-loaded nanoparticles, intravenous (tail vein), 5 μg Luciferase-mRNA, 6 hours; for Fluorescence intensity of liver / Bioluminescence intensity: compounds of Example 1
Summary of the method: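 Lipid nanoparticles carrying 5 μg Luciferase-mRNA given by tail-vein injection to 6-8-week-old C57BL/6 mice. At 6 h, 3 mg D-luciferin i.p. in PBS; bioluminescence imaged 10 min later as the expression read-out.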

C57BL/6 mice [2] = assay: In vivo expression level of Luciferase-mRNA delivered by intramuscular injection (bioluminescence imaging); settings: mRNA-loaded nanoparticles, intramuscular (leg muscle), 5 μg Luciferase-mRNA, 6 hours
Procedure: Luciferase-mRNA was used as an mRNA model; and the cationic lipid analogues of Examples 1-5 were used to prepare drug-loaded nanoparticles according to the method of Example 6.
100 μL of nanoparticles containing 5 μg Luciferase-mRNA or the drug-loaded nanoparticles prepared above were injected into the leg muscles of 6-8 week-old C57BL/6 mice, and 200 μL of 1×PBS solution containing 3 mg D-Luciferin potassium salt was intraperitoneally injected into the mice 6 hours later. After waiting for 10 minutes, an in vivo expression level of the mRNA was evaluated by bioluminescence imaging.

SMILES	Fluorescence intensity of spleen (C57BL/6 mice [1]; compounds of Example 3)	Local fluorescence intensity (C57BL/6 mice [2]; compounds of Example 3)	Local fluorescence intensity (C57BL/6 mice [2]; compounds of Example 1)	other results
CCCCCCCCCCCCCC(=O)N(CCO)C(C(=O)NCCN(CCNC(=O)C(C(C)C)N(CCO)C(=O)CCCCCCCCCCCCC)CCNC(=O)C(C(C)C)N(CCO)C(=O)CCCCCCCCCCCCC)C(C)C (stereo not shown) [A1I5R22C14]	1.20E+06	1.08E+05	–	–
CCCCC/C=C\C/C=C\CCCCCCCC(=O)N(CCCN1CCOCC1)C(C(=O)NCCCCCCCCCCCCCCCCCC)C(C)C (stereo not shown) [A1I18R5C18-2]	–	–	8.15E+04	Fluorescence intensity of liver (C57BL/6 mice [1]): 3.77E+03
CCCCCCCCCCSSCCC(=O)N(CCCC(=O)OC)C(C(=O)NCCN(CCNC(=O)C(C(C)C)N(CCCC(=O)OC)C(=O)CCSSCCCCCCCCCC)CCNC(=O)C(C(C)C)N(CCCC(=O)OC)C(=O)CCSSCCCCCCCCCC)C(C)C (stereo not shown) [A1I5R38S15]	1.14E+05	4.72E+04	–	–
CCCCCCCC/C=C\CCCCCCCC(=O)N(CCN(C)C)C(C(=O)NCCCCCCCCCCCCCCCCCC)C(CC)CCCC (stereo not shown) [A4I18R1C18-1]	–	–	1.54E+07	Bioluminescence intensity (C57BL/6 mice [1]): 1.39E+07
CCCCCCCC/C=C\CCCCCCCC(=O)N(CCCN(C)C)C(C(=O)NCCCCCCCCCCCCCCCCCC)C(CC)CCCC (stereo not shown) [A4I18R2C18-1]	–	–	1.32E+07	Bioluminescence intensity (C57BL/6 mice [1]): 1.33E+07
CCCCCCCCCCSSCCC(=O)N(CCCCCO)C(C(=O)NCCN(CCNC(=O)C(C(C)C)N(CCCCCO)C(=O)CCSSCCCCCCCCCC)CCNC(=O)C(C(C)C)N(CCCCCO)C(=O)CCSSCCCCCCCCCC)C(C)C (stereo not shown) [A1I5R27S15]	7.96E+05	3.57E+05	–	–
CCCCCCCC/C=C\CCCCCCCC(=O)N(CCO)C(C(=O)NCCN(C)CCNC(=O)C(C1CCCCC1)N(CCO)C(=O)CCCCCCC/C=C\CCCCCCCC)C1CCCCC1 (stereo not shown) [A23I4R22C18-1]	–	–	–	Fluorescence intensity of spleen (C57BL/6 mice [1]; compounds of Example 2): 6.57E+05; Local fluorescence intensity (C57BL/6 mice [2]; compounds of Example 2): 1.41E+05
CCCCC/C=C\C/C=C\CCCCCCCC(=O)N(CCOC)C(C(=O)NCCN(C)CCNC(=O)C(C(C)C)N(CCOC)C(=O)CCCCCCC/C=C\C/C=C\CCCCC)C(C)C (stereo not shown) [A1I4R23C18-2]	–	–	–	Fluorescence intensity of spleen (C57BL/6 mice [1]; compounds of Example 2): 9.64E+05; Local fluorescence intensity (C57BL/6 mice [2]; compounds of Example 2): 8.72E+05
CCCCCCCCCCSSCCC(=O)N(CCCCCCO)C(C(=O)NCCN(CCNC(=O)C(C(C)C)N(CCCCCCO)C(=O)CCSSCCCCCCCCCC)CCNC(=O)C(C(C)C)N(CCCCCCO)C(=O)CCSSCCCCCCCCCC)C(C)C (stereo not shown) [A1I5R28S15]	3.31E+06	6.01E+05	–	–
CCCCC/C=C\C/C=C\CCCCCCCC(=O)N(CCN1CCCCC1)C(C(=O)NCCCCCCCCCCCCCCCCCC)C1CCCCC1 (stereo not shown) [A23I18R12C18-2]	–	–	2.01E+06	Fluorescence intensity of liver (C57BL/6 mice [1]): 6.30E+03
CCCCCCCCCCSSCCC(=O)N(CCOCCO)C(C(=O)NCCN(CCNC(=O)C(C(C)C)N(CCOCCO)C(=O)CCSSCCCCCCCCCC)CCNC(=O)C(C(C)C)N(CCOCCO)C(=O)CCSSCCCCCCCCCC)C(C)C (stereo not shown) [A1I5R36S15]	3.27E+06	8.27E+04	–	–
CCCCCCCCCCCCCCCCCCNC(=O)C(C(C)C)N(CCCN1CCOCC1)C(=O)CCCCCCCCCCCCCCCCC (stereo not shown) [A1I18R5C18]	–	–	5.25E+04	Fluorescence intensity of liver (C57BL/6 mice [1]): 1.16E+03
CCCCCCCCCCCCCCCCCCNC(=O)C(C(C)C)N(CCCN(C)C)C(=O)CCCCCCCCCCCCCCCCC (stereo not shown) [A1I18R2C18]	–	–	1.36E+05	Fluorescence intensity of liver (C57BL/6 mice [1]): 2.26E+04
CCCCCCCC/C=C\CCCCCCCC(=O)N(CCOC)C(C(=O)NCCN(C)CCNC(=O)C(C1CCCCC1)N(CCOC)C(=O)CCCCCCC/C=C\CCCCCCCC)C1CCCCC1 (stereo not shown) [A23I4R23C18-1]	–	–	–	Fluorescence intensity of spleen (C57BL/6 mice [1]; compounds of Example 2): 2.96E+05; Local fluorescence intensity (C57BL/6 mice [2]; compounds of Example 2): 5.87E+06
CCCCC/C=C\C/C=C\CCCCCCCC(=O)N(CCCN1CCOCC1)C(C(=O)NCCCCCCCCCCCCCCCCCC)C(CC)CCCC (stereo not shown) [A4I18R5C18-2]	–	–	4.99E+05	Fluorescence intensity of liver (C57BL/6 mice [1]): 8.34E+03
CCCCC/C=C\C/C=C\CCCCCCCC(=O)N(CCN(C)C)C(C(=O)NCCCCCCCCCCCCCCCCCC)C(CC)CCCC (stereo not shown) [A4I18R1C18-2]	–	–	2.11E+07	Fluorescence intensity of liver (C57BL/6 mice [1]): 9.67E+06

SMILES	Fluorescence intensity of spleen (C57BL/6 mice [1]; compounds of Example 3)	Local fluorescence intensity (C57BL/6 mice [2]; compounds of Example 3)	Local fluorescence intensity (C57BL/6 mice [2]; compounds of Example 1)	other results
CCCCC/C=C\C/C=C\CCCCCCCC(=O)N(CCO)C(C(=O)NCCN(C)CCNC(=O)C(C1CCCCC1)N(CCO)C(=O)CCCCCCC/C=C\C/C=C\CCCCC)C1CCCCC1 (stereo not shown) [A23I4R22C18-2]	–	–	–	Fluorescence intensity of spleen (C57BL/6 mice [1]; compounds of Example 2): 6.10E+05; Local fluorescence intensity (C57BL/6 mice [2]; compounds of Example 2): 9.09E+05
CCCCC/C=C\C/C=C\CCCCCCCC(=O)N(CCCN(C)C)C(C(=O)NCCCCCCCCCCCCCCCCCC)C1CCCCC1 (stereo not shown) [A23I18R2C18-2]	–	–	7.16E+05	Fluorescence intensity of liver (C57BL/6 mice [1]): 1.52E+06
CCCCCCCC/C=C\CCCCCCCC(=O)N(CCCN(CC)CC)C(C(=O)NCCCCCCCCCCCCCCCCCC)C(CC)CCCC (stereo not shown) [A4I18R3C18-1]	–	–	1.77E+07	Bioluminescence intensity (C57BL/6 mice [1]): 1.39E+07
CCCCCCCCCCCCCCCCCCNC(=O)C(C(C)C)N(CCN1CCCCC1)C(=O)CCCCCCCCCCCCCCCCC (stereo not shown) [A1I18R12C18]	–	–	4.37E+04	Bioluminescence intensity (C57BL/6 mice [1]): 9.34E+02
CCCCCCCCCCSSCCC(=O)N(CC(=O)OCC)C(C(=O)NCCN(CCNC(=O)C(C(C)C)N(CC(=O)OCC)C(=O)CCSSCCCCCCCCCC)CCNC(=O)C(C(C)C)N(CC(=O)OCC)C(=O)CCSSCCCCCCCCCC)C(C)C (stereo not shown) [A1I5R37S15]	1.61E+05	1.26E+06	–	–
CCCCCCCCCCSSCCC(=O)N(C(C(=O)NCCN(CCNC(=O)C(C(C)C)N(C(=O)CCSSCCCCCCCCCC)C(CO)(CO)CO)CCNC(=O)C(C(C)C)N(C(=O)CCSSCCCCCCCCCC)C(CO)(CO)CO)C(C)C)C(CO)(CO)CO (stereo not shown) [A1I5R30S15]	6.31E+04	7.77E+04	–	–
CCCCCCCCCCCCNC(=O)C(C(C)C)N(CCN(CCN(C(=O)CO)C(C(=O)NCCCCCCCCCCCC)C(C)C)CCN(C(=O)CO)C(C(=O)NCCCCCCCCCCCC)C(C)C)C(=O)CO (stereo not shown) [A1I12R47C21]	–	–	–	Fluorescence intensity of spleen (C57BL/6 mice [1]; compounds of Example 5): 3.10E+05; Local fluorescence intensity (C57BL/6 mice [2]; compounds of Example 5): 2.22E+05
CCCCCCCCCCCCCCCCCCNC(=O)C(C1CCCCC1)N(CCCN1CCOCC1)C(=O)CCCCCCCCCCCCCCCCC (stereo not shown) [A23I18R5C18]	–	–	9.13E+04	Fluorescence intensity of liver (C57BL/6 mice [1]): 1.85E+03
CCCCCCCC/C=C\CCCCCCCC(=O)N(CCOC)C(C(=O)NCCN(C)CCNC(=O)C(C(C)C)N(CCOC)C(=O)CCCCCCC/C=C\CCCCCCCC)C(C)C (stereo not shown) [A1I4R23C18-1]	–	–	–	Fluorescence intensity of spleen (C57BL/6 mice [1]; compounds of Example 2): 3.11E+05; Local fluorescence intensity (C57BL/6 mice [2]; compounds of Example 2): 1.77E+05
CCCCCCCCCCSSCCC(=O)N(CCCOCC)C(C(=O)NCCN(CCNC(=O)C(C(C)C)N(CCCOCC)C(=O)CCSSCCCCCCCCCC)CCNC(=O)C(C(C)C)N(CCCOCC)C(=O)CCSSCCCCCCCCCC)C(C)C (stereo not shown) [A1I5R31S15]	6.13E+05	2.94E+06	–	–
CCCCCCCCCCSSCCC(=O)N(CC1CCCO1)C(C(=O)NCCN(CCNC(=O)C(C(C)C)N(CC1CCCO1)C(=O)CCSSCCCCCCCCCC)CCNC(=O)C(C(C)C)N(CC1CCCO1)C(=O)CCSSCCCCCCCCCC)C(C)C (stereo not shown) [A1I5R35S15]	3.21E+05	2.62E+06	–	–
CCCCC/C=C\C/C=C\CCCCCCCC(=O)N(CCN(CCN(C(=O)CCCCCCC/C=C\C/C=C\CCCCC)C(C(=O)NCCOC)C(C)C)CCN(C(=O)CCCCCCC/C=C\C/C=C\CCCCC)C(C(=O)NCCOC)C(C)C)C(C(=O)NCCOC)C(C)C (stereo not shown) [A1I31R47C18-2]	–	–	–	Fluorescence intensity of spleen (C57BL/6 mice [1]; compounds of Example 5): 6.90E+04; Local fluorescence intensity (C57BL/6 mice [2]; compounds of Example 5): 2.24E+05
CCCCCCCCCCSSCCC(=O)N(C(CC)COC)C(C(=O)NCCN(CCNC(=O)C(C(C)C)N(C(=O)CCSSCCCCCCCCCC)C(CC)COC)CCNC(=O)C(C(C)C)N(C(=O)CCSSCCCCCCCCCC)C(CC)COC)C(C)C (stereo not shown) [A1I5R33S15]	2.33E+05	1.52E+06	–	–
CCCCC/C=C\C/C=C\CCCCCCCC(=O)N(CCOC)C(C(=O)NCCN(C)CCNC(=O)C(C(CC)CCCC)N(CCOC)C(=O)CCCCCCC/C=C\C/C=C\CCCCC)C(CC)CCCC (stereo not shown) [A4I4R23C18-2]	–	–	–	Fluorescence intensity of spleen (C57BL/6 mice [1]; compounds of Example 2): 4.96E+05; Local fluorescence intensity (C57BL/6 mice [2]; compounds of Example 2): 1.93E+04
CCCCC/C=C\C/C=C\CCCCCCCC(=O)N(CCO)C(C(=O)NCCN(C)CCNC(=O)C(C(CC)CCCC)N(CCO)C(=O)CCCCCCC/C=C\C/C=C\CCCCC)C(CC)CCCC (stereo not shown) [A4I4R22C18-2]	–	–	–	Fluorescence intensity of spleen (C57BL/6 mice [1]; compounds of Example 2): 2.61E+05; Local fluorescence intensity (C57BL/6 mice [2]; compounds of Example 2): 4.66E+05
CCCCCCCC/C=C\CCCCCCCC(=O)N(CCO)C(C(=O)NCCN(C)CCNC(=O)C(C(C)C)N(CCO)C(=O)CCCCCCC/C=C\CCCCCCCC)C(C)C (stereo not shown) [A1I4R22C18-1]	–	–	–	Fluorescence intensity of spleen (C57BL/6 mice [1]; compounds of Example 2): 3.18E+05; Local fluorescence intensity (C57BL/6 mice [2]; compounds of Example 2): 2.86E+04
